Source: BigSolDB 2.1

CN1C(C(=O)Nc2ccccn2)=C(O)c2sc(Cl)cc2S1(=O)=O
Settings	solubility (mole fraction)
in PEG-400, 298.15 K	0.00855
in PEG-400, 303.15 K	0.0101
in PEG-400, 308.15 K	0.0114
in PEG-400, 313.15 K	0.0129
in PEG-400, 323.15 K	0.0169

solubility (mole fraction)
Settings	in ethanol	in ethyl acetate	in ethylene glycol	in isopropanol	in n-butanol	in propylene glycol	in sec-butanol	in transcutol	in water
298.15 K	8.43e-06	8.39e-05	0.000224	9.05e-06	1.36e-05	3.17e-05	2.99e-05	0.000317	2.91e-06
303.15 K	1.16e-05	9.08e-05	0.000334	1.16e-05	1.55e-05	3.6e-05	3.59e-05	0.000382	4.12e-06
308.15 K	1.45e-05	9.86e-05	0.000474	1.45e-05	1.75e-05	4.05e-05	4.19e-05	0.000462	5.52e-06
313.15 K	1.98e-05	0.000107	0.000634	1.81e-05	1.99e-05	4.5e-05	4.78e-05	0.000552	7.27e-06
323.15 K	3.22e-05	0.000121	0.00108	2.67e-05	2.39e-05	5.4e-05	6.58e-05	0.000743	1.19e-05
